Patent US10550165B2, “Peptide for inducing regeneration of tissue and use thereof” (STEMRIM INC., priority 2011, dated 2020)

Tests used:
[1] = system: skin flap made on the back of a rat; experiment: Skin flap (skin damage) model on the back of rats; format: in vivo; conditions: for area of wound section (necrosed section) in the skin flap: FIG. 25
Procedure: Experimental animals used were SD rats (male, eight weeks old). After sufficiently deep anesthesia by isoflurane inhalation, a rectangular skin incision of 3 cm width×7 cm length was made on the back. The cephalic side was left uncut, and the skin was thoroughly detached from the subcutaneous tissues. The three incised sides were sutured to the surrounding skin using #4 silk suture, and protected with Tegaderm (3M) to prevent bacterial infection.
The full-length mouse HMGB1 (100 μg/administration/day) produced in HEK293 and chemically synthesized HMGB1 peptide (amino acids 1 to 44; 50 μg/administration/day) were diluted to 200 μl with phosphate buffer and administered to rats via the caudal vein. The first administration was performed 6 hours after the surgery, and then the agents were administered every 24 hours a total of five times. Phosphate-buffered physiological saline was administered as a negative control. Tegaderm was removed after one week, and the wound region was observed weekly to measure the areas of necrosis and ulceration.
Experimental animals used were 15 SD rats (male, eight weeks old) per group. After sufficient anesthesia by isoflurane inhalation, a rectangular skin incision of 3 cm width×7 cm length was made on the back. The cephalic side was left uncut, and the skin was thoroughly detached from the subcutaneous tissues. The incised three sides were sutured to the surrounding skin using #4 silk suture, and protected with Tegaderm (3M) to prevent bacterial infection.
Chemically synthesized HMGB1 peptide (amino acids 1-44; 50 μg/administration/day) or HMGB1 peptide (amino acids 17-25; 50 μg/administration/day) was diluted to 200 μl with phosphate buffer and administered to the rats with experimental wound. The first administration was performed 6 hours after the surgery, and then the agents were administered every 24 hours a total of five times. Phosphate-buffered physiological saline was administered as a negative control. Tegaderm was removed after one week, and the wound was observed two weeks after the wound production. Uncured areas (ulceration and necrosis) were measured.

[2] = system: rat cerebral infarction model; experiment: Middle cerebral artery thread occlusion model (cerebral infarction); format: in vivo; conditions: 50 μg caudal vein
Description: Eight- to ten-week-old male Wister rats were used. Rats were anesthetized by isoflurane inhalation while warming on a keep-warm mat with a body temperature monitor. After confirming that the anesthetic effect was sufficient, cervical hair was removed to expose the skin. The surgical site was sterilized with alcohol. Along the cervical median line, the skin was incised with a scalpel. After the right external carotid artery was ligated and the right common carotid artery was pressurized to temporarily block the blood flow, an occlusion thread made of #4 monofilament nylon with siliconized tip was inserted into the right external carotid artery toward the right internal carotid artery. While releasing the pressure on the common carotid artery, the occlusion thread was advanced along with the blood stream from the internal carotid artery up to the bifurcation to the middle cerebral artery so that the blood flow was blocked. Furthermore, the thread around the right common carotid artery was ligated to completely block the blood flow for 50 minutes. After removing the occlusion thread and loosening the ligature at the common carotid artery, the skin was sutured to complete the surgery.
50 μg of synthetic peptide (1-44) was administered at the caudal vein. The first administration was carried out 6 hours after the production of cerebral infarction. Then, the peptide was administered five times at 24-hour intervals (five days in total).
After 14 days of the final drug administration, the rats were given sufficiently deep anesthesia, and placed in a container filled with carbon dioxide. The complete arrest of heartbeat and breathing was confirmed. Brains were excised and immediately fixed by immersion in buffered 10% formalin. After paraffin embedding, thin sections were prepared and stained with hematoxylin-eosin. Four sections were prepared from each brain at 1.92 mm anterior to bregma (1.92), 0.60 mm anterior to bregma (0.60), 1.56 mm posterior to bregma (−1.56), and 3.24 mm posterior to bregma (−3.24), and the areas were compared.

**Q.** Which “area of wound section (necrosed section) in the skin flap” value ([1]; after four weeks and later, versus the other two groups) does the source give for “synthetic peptide (1-44): chemically synthesized HMGB1 peptide, amino acids 1 to 44, mouse HMGB1 sequence (MGKGDPKKPRGKMSSYAFFVQTCREEHKKKHPDASVNFSEFSKK; UniProt P63158 1-44, looked up, fragment)” here?
**A.** Its value is “a further shrinking effect was observed”.

**Q.** And the “area of wound section (necrosed section) in the skin flap” value ([1]; one to three weeks after the skin flap was made, versus negative control)?
**A.** The value was “effect of shrinking the wound section was confirmed”.

**Q.** And the “rats in which skin necrosis developed” value ([1]; one week after surgery, caudal vein, five administrations, full-length 100 μg, peptide 50 μg/administration/day, negative control four of five)?
**A.** The value was “one of five rats”.

**Q.** And the “rats with severe skin contracture” value ([1]; seven weeks after surgery, same regimen, negative control four of five, FIG. 24)?
**A.** Its value is “two of five rats”.

**Q.** And the “ratio of the uncured area relative to the area of the whole skin flap, average” value ([1]; two weeks after skin flap production, 50 μg/administration/day, five administrations, 15 SD rats per group, FIG. 26)?
**A.** Its value is 14.1%.

**Q.** And the “infarction area (% ratio to normal brain area in the right brain), four sections” value ([2]; five administrations, versus negative control (PBS), FIG. 17)?
**A.** The value was “significantly reduced as compared to the negative control group”.

**Q.** And the “animals showing expansion of the infarction to the cortex” value ([2]; N=10, first 6 h after infarction, five times at 24-hour intervals, 14 days after final administration, negative control 8 of 11)?
**A.** Its value is “only one mouse showed expansion of the infarction to the cortex”.

**Q.** And the “animals in which the infarction was limited in the basal nucleus” value ([2]; N=10, five administrations, 14 days after final administration)?
**A.** Its value is 9.
